Test results: patent US20210046139A1, “VEGETATION WATERS AND USES THEREOF” (FATTORIA LA VIALLA DI GIANNI, ANTONIO E BANDINO LO FRANCO - …, priority 2018, published 2021)

How the values were obtained:
STZ diabetic rats [1] = assay: Plasma total cholesterol, HDL and triglycerides; assay type: in vivo, Sprague-Dawley rats; settings: 50 mg/kg/day, 5 weeks, mean ± S.E.
From the text: A well-established model of streptozotocin (STZ)-induced diabetes in rats was used. Streptozotocin is a glucosamine derivative of nitrosurea which selectively destroys the β cells of the pancreatic islets and causes the development of diabetes with hyperglycemia and glycosuria. The model shares a series of characteristics with human diabetic complications at both a functional level and a biochemical level, such as, for example, a reduced nervous conduction, loss of small-diameter sensory nerve fibers in the skin, reduction in Na+ and K+-ATPase activity and early alterations of the thermal and mechanical nociceptive thresholds. In this study, diabetes was induced in 24 rats with a single intraperitoneal injection of 60 mg/kg of STZ dissolved in a sodium citrate buffer (pH 4.5). 24 rats injected only with the vehicle were used as non-diabetic controls. Hyperglycemia was confirmed by measuring glycosuria 72 hours after the injection of STZ using Keto-Diabur strips (KD-5000; Roche Diagnostics Spa, Italy). Only the animals with glycosuria >5% were classified as diabetic and included in the study. […] The animals were then randomized to receive the concentrate of the invention at an HT equivalent dose of 50 mg/kg/day or 50 mg/kg/day of pure HT in drinking water, according to the following treatment groups: The daily dose of compounds was administered starting from the 7th week after the injection of STZ or the vehicle. The treatment lasted 5 weeks and urine samples were taken. The animals were then sacrificed and the plasma, kidneys and sciatic nerves were removed. The sacrifice took place within 2 hours after the last administration of the concentrate, HT or the vehicle. At the end of the 5-week treatment period, urine and plasma were collected to measure the level of triglycerides (TG), total cholesterol (TC), high-density lipoprotein (HDL) and other parameters using commercially available diagnostic kits.

STZ diabetic rats [2] = assay: Motor and sensory nerve conduction velocity (tail, sciatic nerve); assay type: in vivo, Sprague-Dawley rats; settings: end of administration (week 12), mean ± S.E.; for Conduction of sciatic nerve: sciatic motor NCV; for Sensitivity of sciatic nerve: sciatic sensory NCV; for Conduction of tail: tail motor NCV; for Sensitivity of tail: tail sensory NCV
From the text: A well-established model of streptozotocin (STZ)-induced diabetes in rats was used. Streptozotocin is a glucosamine derivative of nitrosurea which selectively destroys the β cells of the pancreatic islets and causes the development of diabetes with hyperglycemia and glycosuria. The model shares a series of characteristics with human diabetic complications at both a functional level and a biochemical level, such as, for example, a reduced nervous conduction, loss of small-diameter sensory nerve fibers in the skin, reduction in Na+ and K+-ATPase activity and early alterations of the thermal and mechanical nociceptive thresholds. In this study, diabetes was induced in 24 rats with a single intraperitoneal injection of 60 mg/kg of STZ dissolved in a sodium citrate buffer (pH 4.5). 24 rats injected only with the vehicle were used as non-diabetic controls. Hyperglycemia was confirmed by measuring glycosuria 72 hours after the injection of STZ using Keto-Diabur strips (KD-5000; Roche Diagnostics Spa, Italy). Only the animals with glycosuria >5% were classified as diabetic and included in the study. […] The animals were then randomized to receive the concentrate of the invention at an HT equivalent dose of 50 mg/kg/day or 50 mg/kg/day of pure HT in drinking water, according to the following treatment groups: The electrophysiological studies were performed using a portable electromyograph (Alpine Biomed ApS DK-2740, Denmark). The test on sciatic nerve conduction was performed by stimulating the sciatic nerve in the Achilles tendons and in the hollow above the sciatic nerve at the point of attachment of the tail with a single 2.2 ms supramaximal pulse using a bipolar electrode. A measurement of the motor action potential (CMAP) was obtained by placing the active electrode in subcutaneous tissue, in the first interosseous muscle of a toe of the hind paw, and the reference electrode in the fourth interosseous muscle of the same paw. The motor conduction velocity was calculated by subtracting the distal value from the proximal value taking the latency of the first negative peak of the proximal CMAP, measured in milliseconds, and the difference was […] the distance between the two stimulating electrodes, measured in millimeters. The sensory conduction velocity was determined using the plantar nerve. The sensory nerve action potential (SNAP) of the plantar nerve was measured by placing the recording electrode (needle) in subcutaneous tissue at the level of the […] next to the medial malleolus and the reference electrode proximally at about 1 cm. Circular stimulation electrodes were placed in the middle of the three middle toes of the hind paw, and stimulation was performed with a square pulse wave lasting 0.05 ms, with a barely supramaximal current intensity stimulus. The sensory conduction velocity was calculated by measuring the latency at the negative deviation of the peak potential and the distance between the stimulation electrode and the recording electrode. The motor and sensory conduction velocities are expressed as meters per second. The tail motor and sensory conduction test requires that the sensory nerve of the tail be stimulated by inserting the cathode 2 cm from the tip of the tail and the anode at 1 cm distally, using a square wave pulse lasting 0.05-ms at a supramaximal intensity. The SNAPs were recorded by inserting the active electrode 5 cm from the cathode and the reference electrode at 1 cm more proximally. The sensory nerve conduction velocity was calculated by measuring the latency at the peak of the first negative deflection and the distance between the stimulating and recording electrodes. The tail motor nerve conduction was obtained using a bipolar recording configuration. The active electrode was positioned 2 cm from the tip of the tail and the reference electrode at 1 cm distally. The motor nerve of the tail was initially stimulated at 5 cm proximally from the active recording electrode and, subsequently, proximally at 10 cm. […]

[3] = non-diabetic control rats (CTRL)

Q: For OCCc1ccc(O)c(O)c1 [HT, hydroxytyrosol], which “PLASMA HDL” value (STZ diabetic rats [1]; STZ diabetic rats) is on record?
A: 48.7 ± 1.6 mg/dL

Q: What about the “PLASMA TC” value (STZ diabetic rats [1]; STZ diabetic rats) of the same compound?
A: 118.1 ± 3.0 mg/dL

Q: And the “PLASMA TG” value (STZ diabetic rats [1]; STZ diabetic rats)?
A: 457.1 ± 60.7 mg/dL

Q: And the “PLASMA HDL” value (STZ diabetic rats [1]; [3])?
A: 27.0 ± 0.4 mg/dL

Q: And the “PLASMA TC” value (STZ diabetic rats [1]; [3])?
A: 84.4 ± 2.1 mg/dL

Q: And the “PLASMA TG” value (STZ diabetic rats [1]; [3])?
A: 111.5 ± 8.6 mg/dL

Q: What about the “Conduction of sciatic nerve” value (STZ diabetic rats [2]; STZ diabetic rats) of the same compound?
A: 40.3 ± 0.7 m/sec.

Q: What about the “Conduction of sciatic nerve” value (STZ diabetic rats [2]; [3]) of the same compound?
A: 46.5 ± 1.5 m/sec.

Q: What about the “Sensitivity of sciatic nerve” value (STZ diabetic rats [2]; STZ diabetic rats) of the same compound?
A: 33.7 ± 0.9 m/sec.

Q: What about the “Sensitivity of sciatic nerve” value (STZ diabetic rats [2]; [3]) of the same compound?
A: 39.0 ± 0.9 m/sec.

Q: And the Conduction of tail (STZ diabetic rats [2]; STZ diabetic rats)?
A: 37.4 ± 0.9 m/sec.

Q: What about the Conduction of tail (STZ diabetic rats [2]; [3]) of the same compound?
A: 36.1 ± 1.7 m/sec.

Q: And the Sensitivity of tail (STZ diabetic rats [2]; STZ diabetic rats)?
A: 30.8 ± 0.8 m/sec.

Q: What about the Sensitivity of tail (STZ diabetic rats [2]; [3]) of the same compound?
A: 34.7 ± 1.3 m/sec.
